pIC50: −log10 of the molar value.
Experiments:
[1] = test system: human lung cancer strain NCI-H441; assay type: cell-based
Summary of the method: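 Signal came from […] measured per well once the reagent was added. Beforehand, cells were cultured at 37°C and 5% carbon dioxide on a compound series serially diluted in dimethyl sulfoxide.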

[2] = biological target: GDP-bound NRAS wild-type protein (Homo sapiens, UniProt P01111); experiment: Binding to NRAS by surface plasmon resonance (SPR), KD and KD ratio to KRAS; details: ratio of the KD value with respect to GDP-bound NRAS wild-type protein to the KD value with respect to KRAS
GDP-bound NRAS wild-type protein, sequence (P01111 whole entry): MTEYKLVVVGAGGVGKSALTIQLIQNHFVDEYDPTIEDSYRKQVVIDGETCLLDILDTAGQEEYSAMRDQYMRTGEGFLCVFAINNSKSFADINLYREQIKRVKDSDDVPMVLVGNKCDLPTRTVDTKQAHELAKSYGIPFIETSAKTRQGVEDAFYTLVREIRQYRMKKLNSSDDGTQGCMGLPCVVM
Summary of the method: (§1)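 Recombinant RAS proteins bearing a biotinylated Avi tag and loaded with GDP served as the captured ligand, recaptured fresh every cycle. Binding responses were referenced to an uncoated surface and a buffer-only blank cycle. Dissociation constants were obtained by 1:1 model fitting at 30°C.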

[3] = biological target: HRAS wild-type protein (Homo sapiens, UniProt P01112); experiment: Binding to HRAS by surface plasmon resonance (SPR), KD and KD ratio to KRAS; details: ratio of the KD value with respect to HRAS wild-type protein to the KD value with respect to KRAS
HRAS wild-type protein, sequence (P01112 whole entry): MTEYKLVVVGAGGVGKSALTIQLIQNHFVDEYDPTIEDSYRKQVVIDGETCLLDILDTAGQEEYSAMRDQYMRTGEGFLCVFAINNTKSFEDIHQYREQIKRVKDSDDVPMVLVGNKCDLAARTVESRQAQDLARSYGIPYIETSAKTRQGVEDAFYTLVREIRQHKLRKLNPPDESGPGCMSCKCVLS
Summary of the method: as §1

Row | Structure (SMILES) | pIC50 [1] | NRAS /KRAS [2] | HRAS /KRAS [3]
1 | CCCOC[C@H]1C(=O)N[C@@H]([C@@H](C)CC)C(=O)N2CCC[C@H]2C(=O)N(C)[C@H]2C/C=C\CCN(C2=O)[C@@H](Cc2ccc(C)cc2)C(=O)N(C)CC(=O)N[C@@H](CCc2ccc(C(F)(F)F)c(OC)c2)C(=O)N2C[C@H](OCC)C[C@H]2C(=O)N(C)C2(CCC2)C(=O)N(C)[C@@H](C(CC)CC)C(=O)N(C)[C@H](C(=O)N(C)C)CC(=O)N1C [PP2331] | 7.93 | AA (a compound having 20 or more is denoted as AA) | A (a compound having 10 or more and less than 20 is denoted as A)
2 | CCC[C@H]1C(=O)N[C@@H]([C@@H](C)CC)C(=O)N2CCC[C@H]2C(=O)N(C)[C@H]2C/C=C\CCN(C2=O)[C@@H](Cc2ccc(C)cc2)C(=O)N(C)CC(=O)N[C@@H](CCc2ccc(C(F)(F)F)c(OC)c2)C(=O)N2C[C@H](OCC)C[C@H]2C(=O)N(C)C2(CCC2)C(=O)N(C)[C@@H](C2CCCC2)C(=O)N(C)[C@H](C(=O)N(C)C)CC(=O)N1C [PP2332] | 8.42 | A (a compound having 10 or more and less than 20 is denoted as A) | B (a compound having 3 or more and less than 10 is denoted as B)
3 | CCCOC[C@H]1C(=O)N[C@@H]([C@@H](C)CC)C(=O)N2CCC[C@H]2C(=O)N(C)[C@H]2C/C=C\CCN(C2=O)[C@@H](Cc2ccc(C)cc2)C(=O)N(C)CC(=O)N[C@@H](CCc2ccc(C(F)(F)F)c(OC)c2)C(=O)N2C[C@H](OCC)C[C@H]2C(=O)N(C)C2(CCC2)C(=O)N(C)[C@@H](C2CCCC2)C(=O)N(C)[C@H](C(=O)N(C)C)CC(=O)N1C [PP2334] | 8.24 | A (a compound having 10 or more and less than 20 is denoted as A) | B (a compound having 3 or more and less than 10 is denoted as B)
4 | CCO[C@@H]1C[C@H]2C(=O)N(C)C3(CCC3)C(=O)N(C)[C@@H](C(CC)CC)C(=O)N(C)[C@H](C(=O)N(C)C)CC(=O)N(C)[C@@H](COC)C(=O)N[C@@H]([C@@H](C)CC)C(=O)N(C)CC(=O)N(C)[C@H]3C/C=C\CCN(C3=O)[C@@H](CC3CCCCC3)C(=O)N(C)CC(=O)N[C@@H](CCc3ccc(C(F)(F)F)c(OC)c3)C(=O)N2C1 [PP2335] | 7.19 | A (a compound having 10 or more and less than 20 is denoted as A) | A (a compound having 10 or more and less than 20 is denoted as A)
5 | CCC[C@H]1C(=O)N[C@@H]([C@@H](C)CC)C(=O)N(C)CC(=O)N(C)[C@H]2C/C=C\CCN(C2=O)[C@@H](CC2CCCCC2)C(=O)N(C)CC(=O)N[C@@H](CCc2ccc(C(F)(F)F)c(OC)c2)C(=O)N2C[C@H](OCC)C[C@H]2C(=O)N(C)C2(CCC2)C(=O)N(C)[C@@H](C2CCCC2)C(=O)N(C)[C@H](C(=O)N(C)C)CC(=O)N1C [PP2336] | 7.79 | A (a compound having 10 or more and less than 20 is denoted as A) | A (a compound having 10 or more and less than 20 is denoted as A)
6 | CCO[C@@H]1C[C@H]2C(=O)N(C)C3(CCC3)C(=O)N(C)[C@@H](C(CC)CC)C(=O)N(C)[C@H](C(=O)N(C)C)CC(=O)N(C)[C@@H](COC)C(=O)N[C@@H]([C@@H](C)CC)C(=O)N(C3CC3)CC(=O)N(C)[C@H]3C/C=C\CCN(C3=O)[C@@H](CC3CCCCC3)C(=O)N(C)CC(=O)N[C@@H](CCc3ccc(C(F)(F)F)c(OC)c3)C(=O)N2C1 [PP2339] | 7.23 | A (a compound having 10 or more and less than 20 is denoted as A) | A (a compound having 10 or more and less than 20 is denoted as A)
7 | CCC[C@H]1C(=O)N[C@@H]([C@@H](C)CC)C(=O)N2CCC[C@H]2C(=O)N(C)[C@H]2C/C=C\CCN(C2=O)[C@@H](CC2CCCCC2)C(=O)N(C)CC(=O)N[C@@H](CCc2ccc(C(F)(F)F)c(OC)c2)C(=O)N2C[C@H](OCC)C[C@H]2C(=O)N(C)C2(CCC2)C(=O)N(C)[C@@H](C(CC)CC)C(=O)N(C)[C@H](C(=O)N(C)C)CC(=O)N1C [PP2341] | 6.88 | A (a compound having 10 or more and less than 20 is denoted as A) | A (a compound having 10 or more and less than 20 is denoted as A)
8 | CCC[C@H]1C(=O)N[C@@H]([C@@H](C)CC)C(=O)N2CCC[C@H]2C(=O)N(C)[C@H]2C/C=C\CCN(C2=O)[C@@H](CC2CCCCC2)C(=O)N(C)CC(=O)N[C@@H](CCc2ccc(C(F)(F)F)c(OC)c2)C(=O)N2C[C@H](OCC)C[C@H]2C(=O)N(C)C2(CCC2)C(=O)N(C)[C@@H](C2CCCC2)C(=O)N(C)[C@H](C(=O)N(C)C)CC(=O)N1C [PP2344] | 7.35 | A (a compound having 10 or more and less than 20 is denoted as A) | A (a compound having 10 or more and less than 20 is denoted as A)
9 | CCC[C@H]1C(=O)N[C@@H]([C@@H](C)CC)C(=O)N(C)CC(=O)N(C)[C@H]2C/C=C\CCN(C2=O)[C@@H](CC2CCC(F)(F)CC2)C(=O)N(C)CC(=O)N[C@@H](CCc2ccc(C(F)(F)F)c(OC)c2)C(=O)N2C[C@H](OCC)C[C@H]2C(=O)N(C)C2(CCC2)C(=O)N(C)[C@@H](C(CC)CC)C(=O)N(C)[C@H](C(=O)N(C)C)CC(=O)N1C [PP2345] | 7.11 | A (a compound having 10 or more and less than 20 is denoted as A) | A (a compound having 10 or more and less than 20 is denoted as A)
10 | CCOC[C@H]1C(=O)N[C@@H]([C@@H](C)CC)C(=O)N(C)CC(=O)N(C)[C@H]2C/C=C\CCN(C2=O)[C@@H](CC2CCC(F)(F)CC2)C(=O)N(C)CC(=O)N[C@@H](CCc2ccc(C(F)(F)F)c(OC)c2)C(=O)N2C[C@H](OCC)C[C@H]2C(=O)N(C)C2(CCC2)C(=O)N(C)[C@@H](C(CC)CC)C(=O)N(C)[C@H](C(=O)N(C)C)CC(=O)N1C [PP2347] | 6.84 | A (a compound having 10 or more and less than 20 is denoted as A) | A (a compound having 10 or more and less than 20 is denoted as A)
11 | CCC[C@H]1C(=O)N[C@@H]([C@@H](C)CC)C(=O)N(C)CC(=O)N(C)[C@H]2C/C=C\CCN(C2=O)[C@@H](CC2CCC(F)(F)CC2)C(=O)N(C)CC(=O)N[C@@H](CCc2ccc(C(F)(F)F)c(OC)c2)C(=O)N2C[C@H](OCC)C[C@H]2C(=O)N(C)C2(CCC2)C(=O)N(C)[C@@H](C2CCCC2)C(=O)N(C)[C@H](C(=O)N(C)C)CC(=O)N1C [PP2348] | 7.28 | A (a compound having 10 or more and less than 20 is denoted as A) | A (a compound having 10 or more and less than 20 is denoted as A)
12 | CCC[C@H]1C(=O)N[C@@H]([C@@H](C)CC)C(=O)N(C2CC2)CC(=O)N(C)[C@H]2C/C=C\CCN(C2=O)[C@@H](CC2CCC(F)(F)CC2)C(=O)N(C)CC(=O)N[C@@H](CCc2ccc(C(F)(F)F)c(OC)c2)C(=O)N2C[C@H](OCC)C[C@H]2C(=O)N(C)C2(CCC2)C(=O)N(C)[C@@H](C(CC)CC)C(=O)N(C)[C@H](C(=O)N(C)C)CC(=O)N1C [PP2349] | 7.14 | A (a compound having 10 or more and less than 20 is denoted as A) | A (a compound having 10 or more and less than 20 is denoted as A)
13 | CCCOC[C@H]1C(=O)N[C@@H]([C@@H](C)CC)C(=O)N(C)CC(=O)N(C)[C@H]2C/C=C\CCN(C2=O)[C@@H](CC2CCC(F)(F)CC2)C(=O)N(C)CC(=O)N[C@@H](CCc2ccc(C(F)(F)F)c(OC)c2)C(=O)N2C[C@H](OCC)C[C@H]2C(=O)N(C)C2(CCC2)C(=O)N(C)[C@@H](C2CCCC2)C(=O)N(C)[C@H](C(=O)N(C)C)CC(=O)N1C [PP2350] | 7.22 | A (a compound having 10 or more and less than 20 is denoted as A) | A (a compound having 10 or more and less than 20 is denoted as A)
14 | CCC[C@H]1C(=O)N[C@@H]([C@@H](C)CC)C(=O)N(C2CC2)CC(=O)N(C)[C@H]2C/C=C\CCN(C2=O)[C@@H](CC2CCC(F)(F)CC2)C(=O)N(C)CC(=O)N[C@@H](CCc2ccc(C(F)(F)F)c(OC)c2)C(=O)N2C[C@H](OCC)C[C@H]2C(=O)N(C)C2(CCC2)C(=O)N(C)[C@@H](C2CCCC2)C(=O)N(C)[C@H](C(=O)N(C)C)CC(=O)N1C [PP2352] | 7.81 | A (a compound having 10 or more and less than 20 is denoted as A) | A (a compound having 10 or more and less than 20 is denoted as A)
15 | CCC[C@H]1C(=O)N[C@@H]([C@@H](C)CC)C(=O)N2CCC[C@H]2C(=O)N(C)[C@H]2C/C=C\CCN(C2=O)[C@@H](CC2CCC(F)(F)CC2)C(=O)N(C)CC(=O)N[C@@H](CCc2ccc(C(F)(F)F)c(OC)c2)C(=O)N2C[C@H](OCC)C[C@H]2C(=O)N(C)C2(CCC2)C(=O)N(C)[C@@H](C(CC)CC)C(=O)N(C)[C@H](C(=O)N(C)C)CC(=O)N1C [PP2353] | 7.16 | A (a compound having 10 or more and less than 20 is denoted as A) | A (a compound having 10 or more and less than 20 is denoted as A)
